In PubChem BioAssay (NCI):
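Dose response: 5 concentrations. Exposure: 48 h. Format: 96-well plates. Endpoint: linear interpolation; highest concentration if not reached. The concentration for 50% growth inhibition is given as GI50. The concentration for full growth arrest is given as TGI.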

System: MDA-MB-468 breast
Assay: DTP human tumour cell line panel, 48 h

| Structure (SMILES) | GI50 | TGI |
| --- | --- | --- |
| N#CC1c2ccccc2-c2ccccc2N1C(=O)c1ccccc1 (stereo not given) | 0.383 µM | > 26.1 µM |
| CCCCCCCCCCCCCCCC[N+]1(CC)CCCC1 | 0.184 µM | 0.799 µM |
| COc1cc[nH]c1/C=C1\C(=O)Nc2ccc(F)c(C#CC3(O)CCOCC3)c21 | 0.71 µM | 2.9 µM |
| Cc1nnc([S-])s1.[Au+].c1ccc([PH+](c2ccccc2)c2ccccc2)cc1 | 1.27 µM | 2.86 µM |
| COc1ccc(/C=C\c2cc(OC)c(OC)c(OC)c2)cc1OP(=O)(O)O | 0.0543 µM | > 100 µM |
| COC(=O)c1cc(Nc2ccc(O)c3c2C(=O)c2c([N+](=O)[O-])ccc(O)c2C3=O)cc(C(=O)OC)c1 | 16.5 µM | 98.5 µM |
| Cc1ccc(NCSc2ccc(Cl)cc2)cc1 | 2.68 µM | 8.05 µM |
| O=C1OC(c2ccc(O)cc2)(c2ccc(O)cc2)c2cccc3cccc1c23 | 4.06 µM | 21.7 µM |
| CCCC/C(=N\N=C(N)N)c1ccc(F)cc1 | 0.59 µM | 5.81 µM |
| C/C(=C(/c1ccc(O)cc1)c1ccc(OCCN2CCCC2)cc1)c1ccccc1 | 1.84 µM | 4.47 µM |
| O=C1C=C(Nc2cccc(Br)c2)c2ccccc2C1=O | 17.6 µM | 83.8 µM |
| COc1ccccc1Cn1cc2c(c1)-c1oncc1CC2 | 0.217 µM | 0.697 µM |
| O=C1c2cccnc2C(=O)c2c1c(C(=O)OCCCN1CCOCC1)c1ccccn21 | 1.39 µM | 7.1 µM |
| CC[C@]12C=CCN3CC[C@]4(C(=C(C(=O)OC)C1)Nc1cc(O)ccc14)[C@@H]32 | 9.38 µM | 44 µM |
| Oc1ccc(-c2nnc(SCc3ccc(O)c4ncccc34)o2)cc1 | 2 µM | 8.06 µM |
| COC(=O)[C@H](Cc1ccccc1)NC(=O)c1csc([C@@H](C[C@H](C(C)C)N(C)C(=O)[C@@H](NC(=O)[C@H]2CCCCN2C)C2CC2)OC(C)=O)n1 | 0.0441 µM | > 25 µM |
| CCOC(=O)c1[nH]c2c(c1C)-c1[nH]c(=O)c(S(=O)(=O)c3ccccc3)cc1SC2 | 54 µM | > 100 µM |
| COc1ccccc1C(=O)c1cnc(NC2CCN(S(C)(=O)=O)CC2)nc1N | 7.79 µM | > 25 µM |
| CC1Cc2c(N(C)C)ncnc2N(C)c2ccc(Cl)cc21 (stereo not given) | 2.66 µM | 67.7 µM |
| Cc1nn(-c2ccccc2)c2c1C1C(=C(c3ccc(Cl)cc3)N2)C(=O)Nc2ccccc21 (stereo not given) | 3.34 µM | 19.5 µM |
| NS(=O)(=O)c1ccc(Nc2nc(Nc3ccccc3)nc(-n3nc(-c4ccccc4)cc3-c3ccccc3)n2)cc1 | 2.31 µM | 6.95 µM |
| COc1cc(C2C3=C(COC3=O)N(CCO)c3cc4c(cc32)CCC4)cc(OC)c1O (stereo not given) | 0.0891 µM |  |
| COc1cccc(-c2nn(-c3ccccc3)cc2-c2ccnc(NCCNC(=O)Nc3ccc(Cl)c(Cl)c3)c2)c1 | 1.7 µM | 4.54 µM |
